In patent publication US20060069132A1, “Azolecarboxamide herbicides” (priority 2004, published 2006):
Read-outs that look alike come from different tables or passages of the source.

How the values were obtained:
ducksalad = experiment: Test C flooded paddy test; format: in vivo, Heteranthera limosa; conditions: Heteranthera limosa
Surinam grass = experiment: Test C pre-/postemergence herbicide test; format: in vivo, Urochloa decumbens
Procedure, shortened: (§1)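 Seeds were planted and sprayed preemergence with test chemicals in a non-phytotoxic solvent mixture containing surfactant; postemergence treatments went onto plants 2 to 18 cm tall (1- to 4-leaf stage). After 12 to 14 days in a greenhouse, injury was rated visually against untreated controls on a 0–100 scale.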

pigweed = experiment: Test C pre-/postemergence herbicide test; format: in vivo, Amaranthus retroflexus
Procedure, shortened: as §1

large crabgrass = experiment: Test C pre-/postemergence herbicide test; format: in vivo, Digitaria sanguinalis
Procedure, shortened: as §1

barnyardgrass = experiment: Test A pre-/postemergence herbicide test; format: in vivo, Echinochloa crus-galli; conditions: Echinochloa crus-galli, 240 h; for pest or weed control at 500 g/ha: 500 g ai/ha; for pest or weed control at 2000 g/ha: 2000 g ai/ha
Procedure, shortened: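 Seeds sown in sandy loam received a preemergence directed soil spray of compound in non-phytotoxic solvent with surfactant; postemergence plants (2–10 cm, one- to two-leaf stage) were sprayed to runoff at the same time. After ~10 days in greenhouse, injury was rated visually versus untreated controls (0 = no effect, 100 = complete control).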

rice [1] = experiment: Test B pre-/postemergence herbicide test; format: in vivo, Oryza sativa
Procedure, shortened: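 Visual rating, 0 (no effect) to 100 (complete control), versus untreated controls after 13–15 d in greenhouse. Pre- and postemergence applications (postemergence plants 2–18 cm, 1–4 leaves); flooded paddy arm at 2-leaf stage. Compounds in non-phytotoxic solvent plus surfactant.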

eastern black nightshade = experiment: Test C pre-/postemergence herbicide test; format: in vivo, Solanum ptycanthum
Procedure, shortened: as §1

rice [2] = experiment: Test C flooded paddy test; format: in vivo, Oryza sativa; conditions: Oryza sativa
Procedure, shortened: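 Postemergence sprays applied to plants 2 to 18 cm tall (1- to 4-leaf stage); paddy species grown to 2-leaf stage under flooding. After 12 to 14 days in greenhouse, visual rating versus untreated controls on 0–100 scale (0 no effect, 100 complete control).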

common ragweed = experiment: Test C pre-/postemergence herbicide test; format: in vivo, Ambrosia elatior
Procedure, shortened: as §1

[3] = Preemergence, 500 g ai/ha, scale 0 to 100, 0 no effect, 100 complete control
[4] = post-emergence, Postemergence, 0 to 100 scale, 0 no effect, 100 complete control, read-out: Plant response rating, Barnyardgrass

In the case of CCn1nc(C(C)(C)C)cc1C(=O)Nc1cccc2c1CN(C)C2=O [Compound 55, N-(2,3-dihydro-2-methyl-1-oxo-1H-isoindol-4-yl)-3-(1,1-dimethylethyl)-1-ethyl-1H-pyrazole-5-carboxamide], the pest or weed control at 62 g/ha (ducksalad; 62 g ai/ha, scale 0 to 100 (0 no effect, 100 complete control), read-out: Ducksalad plant response rating) is reported as 0%, the pest or weed control at 125 g/ha (ducksalad; 125 g ai/ha, scale of 0 to 100, 0 is no effect, 100 is complete control, read-out: Ducksalad plant response rating) is reported as 0% and the pest or weed control at 250 g/ha (ducksalad; 250 g ai/ha, scale of 0 to 100, 0 is no effect, 100 is complete control, read-out: Ducksalad plant response rating) is reported as 55%. For the same compound, the pest or weed control at 500 g/ha (ducksalad; 500 g ai/ha, visual rating after 12 to 14 days, scale 0 to 100 (0 no effect, 100 complete control), read-out: Plant response rating, Ducksalad) was 80%, the “Plant response rating (0 = no effect, 100 = complete control), Surinam Grass” value (Surinam grass; 62 g ai/ha, preemergence) was 0 and the “Surinam Grass plant response rating” value (Surinam grass; [3]) was 100. For the same compound, the pest or weed control at 125 g/ha (Surinam grass; Urochloa decumbens, pre-emergence, 312 h, 125 g ai/ha, scale 0 (no effect) to 100 (complete control), visual, 12 to 14 days, read-out: Plant response rating, Surinam Grass) was 25%, the pest or weed control at 250 g/ha (Surinam grass; Urochloa decumbens, pre-emergence, 312 h, 250 g ai/ha, scale 0 to 100 (0 no effect, 100 complete control), visual, 12 to 14 days, read-out: Plant response rating, Surinam Grass) was 65% and the “Plant response rating (0 = no effect, 100 = complete control), Pigweed” value (pigweed; 62 g ai/ha, preemergence) was 95. The pest or weed control at 125 g/ha (pigweed; Amaranthus retroflexus, pre-emergence, 125 g ai/ha, scale 0 (no effect) to 100 (complete control), visual, 12 to 14 days, read-out: Plant response rating, Pigweed) was 95%, the pest or weed control at 250 g/ha (pigweed; Amaranthus retroflexus, pre-emergence, 250 g ai/ha, scale 0 to 100 (0 no effect, 100 complete control), visual, 12 to 14 days, read-out: Plant response rating, Pigweed) was 95% and the “Pigweed plant response rating” value (pigweed; [3]) was 95. For the same compound, the “Plant response rating (0 = no effect, 100 = complete control), Crabgrass, Large” value (large crabgrass; 62 g ai/ha, preemergence) was 15, the pest or weed control at 125 g/ha (large crabgrass; Digitaria sanguinalis, pre-emergence, 312 h, 125 g ai/ha, scale 0 (no effect) to 100 (complete control), visual, 12 to 14 days, read-out: Plant response rating, Crabgrass, Large) was 90% and the pest or weed control at 250 g/ha (large crabgrass; Digitaria sanguinalis, pre-emergence, 312 h, 250 g ai/ha, scale 0 to 100 (0 no effect, 100 complete control), visual, 12 to 14 days, read-out: Plant response rating, Crabgrass, Large) was 95%. The “Crabgrass, Large plant response rating” value (large crabgrass; [3]) was 100, the pest or weed control at 500 g/ha (barnyardgrass; [4]) was 90% and the pest or weed control at 2000 g/ha (barnyardgrass; [4]) was 100%. For the same compound, the pest or weed control at 500 g/ha (barnyardgrass; pre-emergence, Preemergence, visual rating, 0 to 100 scale (0 no effect, 100 complete control), read-out: Barnyardgrass plant response rating) was 80%, the pest or weed control at 2000 g/ha (barnyardgrass; pre-emergence, Preemergence, 0 to 100 scale, 0 no effect, 100 complete control, read-out: Barnyardgrass plant response rating) was 95% and the plant injury at 125 g/ha (rice [1]; Oryza sativa, pre-emergence, 336 h, preemergence, 125 g ai/ha, 0 to 100 scale, 0 is no effect, 100 is complete control, read-out: Plant response rating, Rice) was 50%. The “Rice plant response rating” value (rice [1]; Preemergence, 500 g ai/ha, scale 0 to 100) was 70, the “Plant response rating (0 = no effect, 100 = complete control), Nightshade” value (eastern black nightshade; 62 g ai/ha, preemergence) was 15 and the “Nightshade plant response rating” value (eastern black nightshade; [3]) was 95. It also gave a pest or weed control at 125 g/ha (eastern black nightshade; pre-emergence, 125 g ai/ha, scale 0 (no effect) to 100 (complete control), visual, 12 to 14 days, read-out: Plant response rating, Nightshade) of 60%, a pest or weed control at 250 g/ha (eastern black nightshade; pre-emergence, 250 g ai/ha, scale 0 to 100 (0 no effect, 100 complete control), visual, 12 to 14 days, read-out: Plant response rating, Nightshade) of 90% and a plant injury at 62 g/ha (rice [2]; 62 g ai/ha, scale 0 to 100 (0 no effect, 100 complete control), read-out: Rice plant response rating) of 0%. For the same compound, the plant injury at 125 g/ha (rice [2]; 125 g ai/ha, scale of 0 to 100, 0 is no effect, 100 is complete control, read-out: Rice plant response rating) was 0%, the plant injury at 250 g/ha (rice [2]; 250 g ai/ha, scale of 0 to 100, 0 is no effect, 100 is complete control, read-out: Rice plant response rating) was 15% and the plant injury at 500 g/ha (rice [2]; 500 g ai/ha, visual rating after 12 to 14 days, scale 0 to 100 (0 no effect, 100 complete control), read-out: Plant response rating, Rice) was 60%. For the same compound, the “Plant response rating (0 = no effect, 100 = complete control), Ragweed” value (common ragweed; 62 g ai/ha, preemergence) was 0, the pest or weed control at 125 g/ha (common ragweed; Ambrosia artemisiifolia, pre-emergence, 125 g ai/ha, scale 0 (no effect) to 100 (complete control), visual, 12 to 14 days, read-out: Plant response rating, Ragweed) was 0% and the pest or weed control at 250 g/ha (common ragweed; Ambrosia artemisiifolia, pre-emergence, 250 g ai/ha, scale 0 to 100 (0 no effect, 100 complete control), visual, 12 to 14 days, read-out: Plant response rating, Ragweed) was 0%. For the same compound, the “Ragweed plant response rating” value (common ragweed; [3]) was 80.
